Legend:
HL-60 [1] = assay: Cytotoxicity against human HL60 cells assessed as necrosis at 1.25 uM after 72 hrs by trypan blue staining; type: functional
HL-60 [2] = assay: Cytotoxicity against human HL60 cells assessed as necrosis at 2.5 uM after 24 hrs by trypan blue staining; type: functional
HL-60 [3] = assay: Cytotoxicity against human HL60 cells assessed as necrosis at 2.5 uM after 48 hrs by trypan blue staining; type: functional
HL-60 [4] = assay: Cytotoxicity against human HL60 cells assessed as necrosis at 2.5 uM after 72 hrs by trypan blue staining; type: functional
HL-60 [5] = assay: Cytotoxicity against human HL60 cells assessed as necrosis at 5 uM after 24 hrs by trypan blue staining; type: functional
HL-60 [6] = assay: Cytotoxicity against human HL60 cells assessed as necrosis at 5 uM after 48 hrs by trypan blue staining; type: functional
HL-60 [7] = assay: Cytotoxicity against human HL60 cells assessed as necrosis at 5 uM after 72 hrs by trypan blue staining; type: functional
HL-60 [8] = assay: Cytotoxicity against human HL60 cells assessed as necrosis at 10 uM after 24 hrs by trypan blue staining; type: functional
HL-60 [9] = assay: Cytotoxicity against human HL60 cells assessed as necrosis at 10 uM after 48 hrs by trypan blue staining; type: functional
HL-60 [10] = assay: Cytotoxicity against human HL60 cells assessed as necrosis at 10 uM after 72 hrs by trypan blue staining; type: functional
K562 [11] = assay: Cytotoxicity against human K562 cells assessed as necrosis at 1.25 uM after 24 hrs by trypan blue staining; type: functional
K562 [12] = assay: Cytotoxicity against human K562 cells assessed as necrosis at 1.25 uM after 48 hrs by trypan blue staining; type: functional
K562 [13] = assay: Cytotoxicity against human K562 cells assessed as necrosis at 1.25 uM after 72 hrs by trypan blue staining; type: functional
K562 [14] = assay: Cytotoxicity against human K562 cells assessed as necrosis at 2.5 uM after 24 hrs by trypan blue staining; type: functional
K562 [15] = assay: Cytotoxicity against human K562 cells assessed as necrosis at 2.5 uM after 48 hrs by trypan blue staining; type: functional
K562 [16] = assay: Cytotoxicity against human K562 cells assessed as necrosis at 2.5 uM after 72 hrs by trypan blue staining; type: functional
K562 [17] = assay: Cytotoxicity against human K562 cells assessed as necrosis at 5 uM after 24 hrs by trypan blue staining; type: functional
K562 [18] = assay: Cytotoxicity against human K562 cells assessed as necrosis at 5 uM after 48 hrs by trypan blue staining; type: functional
K562 [19] = assay: Cytotoxicity against human K562 cells assessed as necrosis at 5 uM after 72 hrs by trypan blue staining; type: functional
K562 [20] = assay: Cytotoxicity against human K562 cells assessed as necrosis at 10 uM after 24 hrs by trypan blue staining; type: functional
K562 [21] = assay: Cytotoxicity against human K562 cells assessed as necrosis at 10 uM after 48 hrs by trypan blue staining; type: functional
K562 [22] = assay: Cytotoxicity against human K562 cells assessed as necrosis at 10 uM after 72 hrs by trypan blue staining; type: functional
HL-60 [23] = assay: Cytotoxicity against human HL60 cells assessed as cell viability at >=5 uM after 24 hrs by MTT assay; type: functional, cell-based
HL-60 [24] = assay: Cytotoxicity against human HL60 cells assessed as cell viability at <=2.5 uM by MTT assay; type: functional, cell-based; conditions: TDE = time-dependent effect
K562 [25] = assay: Cytotoxicity against human K562 cells assessed as cell viability at >=5 uM after 24 hrs by MTT assay; type: functional, cell-based
K562 [26] = assay: Cytotoxicity against human K562 cells assessed as cell viability at <=2.5 uM by MTT assay; type: functional, cell-based; conditions: TDE = time-dependent effect
HL-60 [27] = assay: Cytotoxicity against human HL60 cells assessed as necrosis at 1.25 uM after 24 hrs by trypan blue staining; type: functional
HL-60 [28] = assay: Cytotoxicity against human HL60 cells assessed as necrosis at 1.25 uM after 48 hrs by trypan blue staining; type: functional

Row | Compound | Activity (HL-60 [1]) [%] | Activity (HL-60 [2]) [%] | Activity (HL-60 [3]) [%] | Activity (HL-60 [4]) [%] | Activity (HL-60 [5]) [%] | Activity (HL-60 [6]) [%] | Activity (HL-60 [7]) [%] | Activity (HL-60 [8]) [%] | Activity (HL-60 [9]) [%] | Activity (HL-60 [10]) [%] | Activity (K562 [11]) [%] | Activity (K562 [12]) [%] | Activity (K562 [13]) [%] | Activity (K562 [14]) [%] | Activity (K562 [15]) [%] | Activity (K562 [16]) [%] | Activity (K562 [17]) [%] | Activity (K562 [18]) [%] | Activity (K562 [19]) [%] | Activity (K562 [20]) [%] | further results
1 | C[N+](C)(C)C[C@H](O)CC(=O)[O-] [LEVOCARNITINE] | 13.6 | 0 | 7.8 | 28.4 | 1.8 | 9.2 | 25.6 | 1.7 | 9.7 | 30 | 0 | 2.5 | 4.7 | 2.4 | 0 | 4.7 | 0 | 8.9 | 14.3 | 2.4 | Activity (K562 [21]): 11.1%; Activity (K562 [22]): 11.8%; Activity (HL-60 [23]; TDE = time-dependent effect): tde; Activity (HL-60 [24]): tde; Activity (K562 [25]; TDE = time-dependent effect): tde; Activity (K562 [26]): tde; Activity (HL-60 [27]): 1.4%; Activity (HL-60 [28]): 5.3%
2 | CUPRIC CHLORIDE | 26.5 | 1.5 | 6.8 | 22.6 | 86.2 | 100 | 100 | 100 | 100 | 100 | 16.3 | 4.9 | 3 | 5.1 | 10.8 | 7.5 | 87.5 | 100 | 100 | 100 | Activity (K562 [21]): 100%; Activity (K562 [22]): 100%; Activity (HL-60 [23]): 0%; Activity (HL-60 [24]): tde; Activity (K562 [25]): 0%; Activity (K562 [26]): tde; Activity (HL-60 [27]): 1.4%; Activity (HL-60 [28]): 10.8%
